# Counter-ions that a name gives are not always drawn.
# Columns and labels:
# H. zea females = assay: Bioassay: pheromone content of ligated, PBAN-injected females after a second injection with the isolated material; type: in vivo, Helicoverpa zea
# Method: The activity of the two peptides was evaluated by bioassay. Females were first ligated between head & thorax to remove their own source of PBAN; they were then injected with PBAN to stimulate pheromone biosynthesis, followed by a later injection with the isolated material.
# Females in their 1st or 2nd photophase after emergence are ligated between the head and thorax with silk thread. The following morning, approximately 16 hours later, the females are injected with 2 picomoles of the pheromonotropic peptide PBAN. One hour later, they are injected a second time with fractionated material obtained as described supra. Two hours later, the tip of the abdomen (at the 7th abdominal segment), containing the ovipositor and the glandular tissue producing sex pheromone, is excised and extracted with 5-15 μl heptane The amount of the major component of sex pheromone, Z-11-hexadecenal, is quantified by gas chromatography. Females receiving saline (control) at the second injection typically contain 50-150 nanograms pheromone in the extract while females having been injected with the peptides extracted from the male reproductive tract are found to have 1-5 nanograms.
# female H. zea = assay: Depletion of female sex pheromone after transfer of the polypeptide during mating; type: in vivo, Helicoverpa zea
# Method: This invention relates to a polypeptide which is transferred from the male corn earworm moth to the female during mating. After transfer, a decline in the production of sex pheromone is observed for at least 24 hours and the female becomes unattractive to males over that period of time. A continued presence of this peptide within the female serves as an effective means of insect control by rendering it permanently unattractive. The peptide is also useful in the study of insect physiology.
# Non-volatile chemicals may also trigger behavioral changes. As described above, the neuropeptide PBAN initiates pheromone biosynthesis. In addition, another polypeptide, pheromonostatic peptide (PSP) is produced in the reproductive tract of male H. zea and is transferred with spermatozoa to the female during mating.
# H. zea males [1] = settings: caged males; cited from earlier work
# H. zea males [2] = settings: field experiments, sticky or electric grid traps; cited from earlier work
# corn earworm moths = settings: cited from earlier work
# tobacco budworm moths = settings: cited from earlier work
compound,measurement,setting,value
"PSP: basic, 57-amino acid peptide, 6615 daltons, one disulfide, pyro-Glu N-terminus, amidated C-terminus, from male H. zea accessory glands and duplex",pheromone accumulation with versus without PSP injection,"H. zea females; ligated females injected with PBAN, then with the isolated material",females receiving no PSP typically accumulated pheromone in much higher amounts than those having been injected with PSP
same,amount of Z-11-hexadecenal (major component of sex pheromone) in the ovipositor/gland extract,"H. zea females; ligated females, 2 picomoles PBAN, test material injected 1 hour later, gland excised 2 hours later, gas chromatography, saline control 50-150 nanograms",1-5 nanograms
same,duration of the pheromone depletion,female H. zea; after transfer during mating,at least 24 hours
same,effect on female sex pheromone after transfer at mating,female H. zea; transferred with spermatozoa from male to female during mating,causes a depletion of the sex pheromone
CCCC/C=C\CCCCCCCCCC=O [Z-11-hexadecenal],sex stimulation activity,H. zea males [1],strong sex stimulation activity
same,catch of males in traps in the presence of the compound,H. zea males [2],inhibited
"CCCC/C=C\CCCCCCCCOC=O [(Z)-9-TDF, (Z)-9-tetradecen-1-ol formate]",reduction of mating,corn earworm moths,effective in reducing mating
same,reduction of mating,tobacco budworm moths,effective in reducing mating
